# Measured values reported in patent US11691962B2 (eXIthera Pharmaceuticals, Inc., priority 2018, dated 2023).
# Target: Factor XIa (Homo sapiens (Human), UniProt P03951)
# Test: Factor XIa enzyme inhibition assay (dose response, fluorogenic AMC substrate)
# Format: biochemical
# Conditions: read-out: hFXIa IC50
# Procedure: • Assay buffer: 20 mM Hepes, pH 7.4; 150 mM NaCl; 0.02% Tween 20 • Compounds: 10 mM stocks in DMSO • Substrate: 20 mM Glp-Pro-Arg-AMC, 25 mg/2.3 mL H2O (store at +4° C.) [Factor XIa, thrombin, and trypsin] • 20 mM Pro-Phe-Arg-AMC (Bachem I-1295), 25 mg/2.2 mL H2O • or Boc-Leu-Gly-Arg-AMC (Bachem I-1105), 25 mg/2.07 mL H2O • (store at +4° C.) [Factor Xa] • Enzyme: Factor XIa; 0.25 μM in 50% glycerol (20 μg/mL) • Trypsin; 0.2 μM in 50% glycerol (4.8 μg/mL) • Thrombin; 0.2 μM in 50% glycerol (7.34 μg/mL) • Factor Xa; 0.2 μM in 50% glycerol (9.2 μg/mL) • These stocks are aliquoted (˜100 μL/aliquot) and stored at −20° C. Methods: • 1. Dilute the substrate to 100 μM in assay buffer (30 μL/6 mL). The enzyme is diluted to 0.5 nM just prior to use (12 μL/6 mL for Factor XIa; 15 μL/6 mL for all of the rest.) • 2. Pipette 50 μL of substrate into each well of the 96 well (12×8) microtiter plate. (Column 1 is used as the 100% activity control and receives no compound, and Column 12 is the blank and receives no enzyme.) Add an additional 46 μL to column 2. • 3. Pipette 4 μL of each compound into the appropriate well in column 2 of the plate (unknowns assayed in triplicate, standard assayed in duplicate). The final compound concentration will be […] of the stock. • 4. Serially two-fold dilute the compound by mixing the sample in column 2, removing 50 μL to the next well (column 3), mix and remove to column 4, etc. until column 11. After mixing column 11, remove 50 μL and discard. • 5. Pipette 50 μL of buffer into column 12. Initiate the reaction by adding 50 μL of enzyme solution to each well of columns 1-11 as rapidly as possible. • 6. Read the plate in a spectrophotometer (SpectraMax) at 30° C., wherein each well is measured every 60 s for 30 min. For Factor Xa assays, each well is measured every 1 min for a total of 60 min. • 7. For Factor XIa assays, the compounds are assayed, in duplicate, at 3 different starting concentrations, 20, 2, and 0.2 μM; 1:10, 1:100, and 1:1000 dilution of 10 mM stock or at 2, 0.2, and 0.02 μM; 1:100, 1:1000, and 1:10,000 dilution of 10 mM stock. Data for each concentration are combined for graphing and data fitting. • 8. Data can be used both for estimation of IC50 and for estimation of Kon.
# Potential inhibitors of Factor XIa were evaluated using the following assay.
# PyroGlu-Pro-Arg-7-methylaminocourin (AMC), available from CPC Scientific, Inc., is based on the substrate pyro-Glu-Pro-Arg-pNA (S-2366), available from Diapharma Group, Inc. (Columbus, Ohio), wherein the p-nitroanaline group is replaced with 7-methylaminocoumarin (AMC).
# The final concentration of the substrate in the assay was 50 μM, and the final concentration of the enzyme was 0.25 nM. Inhibitors were tested by serial dilution over an appropriate range to yield a dose response curve for determination of the inhibitors' IC50 value. The assay mixture was read every minute for 30 minutes in order to generate progress curves. The plates were read in a Spectramax m5 Multimode Plate Reader (Molecular Devices LLC, Sunnyvale, Calif.). Dose response curves were fit to Equation 1 below in which A is the maximum inhibition, B is the minimum inhibition, C is the IC50, and D is the Hill coefficient. Y=[(A−B)/(1+(X/C)^D)]+B (Equation 1)
# Chain of Factor XIa (P03951 388-625): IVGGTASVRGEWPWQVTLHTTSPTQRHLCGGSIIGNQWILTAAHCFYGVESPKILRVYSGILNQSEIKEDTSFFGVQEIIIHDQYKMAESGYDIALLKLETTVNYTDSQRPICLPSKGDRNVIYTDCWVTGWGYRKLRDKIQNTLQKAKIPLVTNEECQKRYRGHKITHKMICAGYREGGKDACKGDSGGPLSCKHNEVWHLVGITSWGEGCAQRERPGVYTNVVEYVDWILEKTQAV
# Chain of Factor XIa (P03951 19-387 partner): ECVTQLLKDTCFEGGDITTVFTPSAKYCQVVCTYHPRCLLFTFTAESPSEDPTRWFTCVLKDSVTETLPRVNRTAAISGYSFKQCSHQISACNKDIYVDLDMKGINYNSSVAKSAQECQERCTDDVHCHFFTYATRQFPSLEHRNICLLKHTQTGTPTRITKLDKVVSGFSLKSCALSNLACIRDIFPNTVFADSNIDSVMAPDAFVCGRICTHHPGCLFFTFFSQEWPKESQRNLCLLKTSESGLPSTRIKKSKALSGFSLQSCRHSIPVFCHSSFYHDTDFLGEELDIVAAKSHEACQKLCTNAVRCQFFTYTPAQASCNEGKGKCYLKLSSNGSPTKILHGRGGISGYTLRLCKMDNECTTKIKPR
row,Compound,IC50
1,"CC[C@@H](NC(=O)N1C(=O)[C@H](Cc2ccnc(N)c2)[C@H]1C(=O)N(C)c1nccn1C)C1CCCCO1 (stereo partly drawn) [Compound 1-121, (2S,3R)-3-((2-aminopyridin-4-yl)methyl)-N2-(1-methyl-1H-imidazol-2-yl)-N1-((R)-1-(oxan-2-yl)propyl)-N2-methyl-4-oxoazetidine-1,2-dicarboxamide]",0.01 to 0.1 µM
2,"CC[C@@H](NC(=O)N1C(=O)[C@H](Cc2ccnc(N)c2)[C@H]1C(=O)N(C)c1nccn1C)C1CCOCC1 [Compound 1-122, (2S,3R)-3-((2-aminopyridin-4-yl)methyl)-N2-(1-methyl-1H-imidazol-2-yl)-N1-((R)-1-(oxan-4-yl)propyl)-N2-methyl-4-oxoazetidine-1,2-dicarboxamide]",0.01 to 0.1 µM
3,"CC[C@@H](NC(=O)N1C(=O)[C@H](Cc2ccnc(N)c2)[C@H]1C(=O)N(C)c1ccn(C)n1)c1ccc(C)cc1 [Compound 1-124, (2S,3R)-3-((2-aminopyridin-4-yl)methyl)-N2-(1-methyl-1H-pyrazol-3-yl)-N1-((R)-1-(4-methylphenyl)propyl)-N2-methyl-4-oxoazetidine-1,2-dicarboxamide]",< 0.01 µM
4,"CC[C@@H](NC(=O)N1C(=O)[C@H](Cc2ccnc(N)c2)[C@H]1C(=O)N(C)c1nccn1C)C1CCCOC1 (stereo partly drawn) [Compound 1-126, (2S,3R)-3-((2-aminopyridin-4-yl)methyl)-N2-(1-methyl-1H-imidazol-2-yl)-N1-((R)-1-(oxan-3-yl)propyl)-N2-methyl-4-oxoazetidine-1,2-dicarboxamide]",0.01 to 0.1 µM
5,"CC[C@@H](NC(=O)N1C(=O)[C@H](Cc2ccnc(N)c2)[C@H]1C(=O)N(C)c1ccn(C)n1)c1ccccc1C [Compound 1-130, (2S,3R)-3-((2-aminopyridin-4-yl)methyl)-N2-(1-methyl-1H-pyrazol-3-yl)-N1-((R)-1-(2-methylphenyl)propyl)-N2-methyl-4-oxoazetidine-1,2-dicarboxamide]",< 0.01 µM
6,"CC[C@@H](NC(=O)N1C(=O)[C@H](Cc2ccnc(N)c2)[C@H]1C(=O)N(C)C1=NC(=O)CN1C)c1ccccc1 [Compound 1-131, (2S,3R)-3-((2-aminopyridin-4-yl)methyl)-N2-(4-oxo-1-methyl-4,5-dihydro-1H-imidazol-2-yl)-N1-((R)-1-phenylpropyl)-N2-methyl-4-oxoazetidine-1,2-dicarboxamide]",0.01 to 0.1 µM
7,"CC[C@@H](NC(=O)N1C(=O)[C@H](Cc2ccnc(N)c2)[C@H]1C(=O)N(C)c1ccn(C)n1)c1cc(C)ccc1C [Compound 1-132, (2S,3R)-3-((2-aminopyridin-4-yl)methyl)-N2-(1-methyl-1H-pyrazol-3-yl)-N1-((R)-1-(2,5-dimethylphenyl)propyl)-N2-methyl-4-oxoazetidine-1,2-dicarboxamide]",< 0.01 µM
8,"CC[C@@H](NC(=O)N1C(=O)[C@H](Cc2ccnc(N)c2)[C@H]1C(=O)N(C)c1ccn(C)n1)c1cc(F)ccc1C [Compound 1-135, (2S,3R)-3-((2-aminopyridin-4-yl)methyl)-N2-(1-methyl-1H-pyrazol-3-yl)-N1-((R)-1-(5-fluoro-2-methylphenyl)propyl)-N2-methyl-4-oxoazetidine-1,2-dicarboxamide]",< 0.01 µM
9,"CC[C@@H](NC(=O)N1C(=O)[C@H](Cc2cc(C)nc(N)c2)[C@H]1C(=O)N(C)C1=NC(=O)CN1C)c1ccccc1 [Compound 1-139, (2S,3R)-3-((2-amino-6-methylpyridin-4-yl)methyl)-N2-(4-oxo-1-methyl-4,5-dihydro-1H-imidazol-2-yl)-N1-((R)-1-phenylpropyl)-N2-methyl-4-oxoazetidine-1,2-dicarboxamide]",0.01 to 0.1 µM
10,"CC[C@@H](NC(=O)N1C(=O)[C@H](Cc2cc(C)nc(N)c2)[C@H]1C(=O)N(C)c1ccn(C)n1)c1ccc(C)cc1 [Compound 1-142, (2S,3R)-3-((2-amino-6-methylpyridin-4-yl)methyl)-N2-(1-methyl-1H-pyrazol-3-yl)-N1-((R)-1-(4-methylphenyl)propyl)-N2-methyl-4-oxoazetidine-1,2-dicarboxamide]",< 0.01 µM
11,"CC[C@@H](NC(=O)N1C(=O)[C@H](Cc2cc(C)nc(N)c2)[C@H]1C(=O)N(C)c1ccn(C)n1)c1ccc(C)c(Cl)c1 [Compound 1-147, (2S,3R)-3-((2-amino-6-methylpyridin-4-yl)methyl)-N2-(1-methyl-1H-pyrazol-3-yl)-N1-((R)-1-(3-chloro-4-methylphenyl)propyl)-N2-methyl-4-oxoazetidine-1,2-dicarboxamide]",< 0.01 µM
12,"CC[C@@H](NC(=O)N1C(=O)[C@H](Cc2cc(C)nc(N)c2)[C@H]1C(=O)N(C)C1=NCC(=O)N1C)c1ccccc1 [Compound 1-148, (2S,3R)-3-((2-amino-6-methylpyridin-4-yl)methyl)-N2-(5-oxo-1-methyl-4,5-dihydro-1H-imidazol-2-yl)-N1-((R)-1-phenylpropyl)-N2-methyl-4-oxoazetidine-1,2-dicarboxamide]",0.1 to 1 µM

# Second part, the molecule after the results:
row,IC50,Compound
1,< 0.01 µM,"CC[C@@H](NC(=O)N1C(=O)[C@H](Cc2ccnc(N)c2)[C@H]1C(=O)N(C)c1nccn1C)c1ccc(Cl)cc1C [Compound 1-118, (2S,3R)-3-((2-aminopyridin-4-yl)methyl)-N2-(1-methyl-1H-imidazol-2-yl)-N1-((R)-1-(4-chloro-2-methylphenyl)propyl)-N2-methyl-4-oxoazetidine-1,2-dicarboxamide]"
2,< 0.01 µM,"CC[C@@H](NC(=O)N1C(=O)[C@H](Cc2ccnc(N)c2)[C@H]1C(=O)N(C)c1nccn1C)c1ccc(C)cc1F [Compound 1-119, (2S,3R)-3-((2-aminopyridin-4-yl)methyl)-N2-(1-methyl-1H-imidazol-2-yl)-N1-((R)-1-(2-fluoro-4-methylphenyl)propyl)-N2-methyl-4-oxoazetidine-1,2-dicarboxamide]"
3,0.01 to 0.1 µM,"CC[C@@H](NC(=O)N1C(=O)[C@H](Cc2ccnc(N)c2)[C@H]1C(=O)N(C)c1ccn(C)n1)c1ccccc1F [Compound 1-133, (2S,3R)-3-((2-aminopyridin-4-yl)methyl)-N2-(1-methyl-1H-pyrazol-3-yl)-N1-((R)-1-(2-fluorophenyl)propyl)-N2-methyl-4-oxoazetidine-1,2-dicarboxamide]"
4,< 0.01 µM,"CC[C@@H](NC(=O)N1C(=O)[C@H](Cc2ccnc(N)c2)[C@H]1C(=O)N(C)c1ccn(C)n1)c1cccc(Cl)c1C [Compound 1-138, (2S,3R)-3-((2-aminopyridin-4-yl)methyl)-N2-(1-methyl-1H-pyrazol-3-yl)-N1-((R)-1-(3-chloro-2-methylphenyl)propyl)-N2-methyl-4-oxoazetidine-1,2-dicarboxamide]"
5,< 0.01 µM,"CC[C@@H](NC(=O)N1C(=O)[C@H](Cc2ccnc(N)c2)[C@H]1C(=O)N(C)c1ccn(C)n1)c1cccc(C)c1C [Compound 1-140, (2S,3R)-3-((2-aminopyridin-4-yl)methyl)-N2-(1-methyl-1H-pyrazol-3-yl)-N1-((R)-1-(2,3-dimethylphenyl)propyl)-N2-methyl-4-oxoazetidine-1,2-dicarboxamide]"
6,< 0.01 µM,"CC[C@@H](NC(=O)N1C(=O)[C@H](Cc2ccnc(N)c2)[C@H]1C(=O)N(C)c1ccn(C)n1)c1cc(Cl)ccc1C [Compound 1-141, (2S,3R)-3-((2-aminopyridin-4-yl)methyl)-N2-(1-methyl-1H-pyrazol-3-yl)-N1-((R)-1-(5-chloro-2-methylphenyl)propyl)-N2-methyl-4-oxoazetidine-1,2-dicarboxamide]"
7,< 0.01 µM,"CC[C@@H](NC(=O)N1C(=O)[C@H](Cc2cc(C)nc(N)c2)[C@H]1C(=O)N(C)c1ccn(C)n1)c1ccc(C)c(C)c1 [Compound 1-145, (2S,3R)-3-((2-amino-6-methylpyridin-4-yl)methyl)-N2-(1-methyl-1H-pyrazol-3-yl)-N1-((R)-1-(3,4-dimethylphenyl)propyl)-N2-methyl-4-oxoazetidine-1,2-dicarboxamide]"
